Assay results published in patent publication EP0942066A2, “Cell line of blood-brain barrier” (KYOWA HAKKO KOGYO CO., LTD., priority 1998, dated 1999).

T1: GLUT1 (Mus musculus, UniProt P17809)
T1 construct: A band indicating the expression of GLUT-1 was confirmed in any of TM-BBB1, TM-BBB2, TM-BBB3, TM-BBB4 and TM-BBB5; endogenous in cells; host or cells: TM-BBB1 to TM-BBB5, conditionally immortalised mouse brain capillary endothelial cell lines (SV40tsA58 large T transgenic mice)
T1 sequence (P17809 1-492): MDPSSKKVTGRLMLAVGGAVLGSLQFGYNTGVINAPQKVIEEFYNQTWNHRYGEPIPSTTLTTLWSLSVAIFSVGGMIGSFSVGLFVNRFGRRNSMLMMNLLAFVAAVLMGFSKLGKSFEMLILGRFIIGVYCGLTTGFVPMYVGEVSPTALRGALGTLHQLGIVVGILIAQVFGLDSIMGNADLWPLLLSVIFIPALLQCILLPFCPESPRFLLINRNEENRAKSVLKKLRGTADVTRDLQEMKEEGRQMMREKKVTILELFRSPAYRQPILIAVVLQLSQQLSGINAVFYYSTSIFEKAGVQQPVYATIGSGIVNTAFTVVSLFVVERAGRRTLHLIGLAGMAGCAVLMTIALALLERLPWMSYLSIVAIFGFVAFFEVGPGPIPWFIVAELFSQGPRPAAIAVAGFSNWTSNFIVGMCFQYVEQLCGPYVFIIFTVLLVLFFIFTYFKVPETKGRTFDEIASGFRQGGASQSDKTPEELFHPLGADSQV

B1: GLUT1 (Mus musculus) (protein)
chain: T1 sequence (P17809 1-492)
notes: A band indicating the expression of GLUT-1 was confirmed in any of TM-BBB1, TM-BBB2, TM-BBB3, TM-BBB4 and TM-BBB5; endogenous in cells; host or cells: TM-BBB1 to TM-BBB5, conditionally immortalised mouse brain capillary endothelial cell lines (SV40tsA58 large T transgenic mice)

Tests used:
[1] = test system: L-glutamic acid transporter; assay: Incorporation of [^3H]L-glutamic acid into astrocyte cell lines TR-AST (glutamic acid transport ability); format: cell-based, rat; settings: for incorporation of [^3H]L-Glu, expressed in % relative to the control: 1 mM of the inhibitor, control = 100±5; for inhibition of incorporation of [^3H]L-Glu (in words): other substrates of the transporter
Protocol: The glutamic acid transport ability of the cell lines obtained in Example 4, that is, TR-AST32, TR-AST811, TR-AST912, TR-AST932, TR-AST943 was examined by incorporation of [^3H]L-glutamic acid ([^3H]L-Glu). Each TR-AST's was plated onto a 24-well cell culture plate at a density of 2×10^5 cells/well and cultured in a CO2 incubator at 33°C to make the cells confluent. The incorporation of [^3H]L-Glu was measured in the following manner. First, the medium was suctioned, and the cells were washed with an uptake buffer at 37°C, and 0.2 mℓ uptake buffer containing 46.3 kBq/well [^3H]L-Glu and 9.25 kBq/mℓ [^14C]inulin at 37°C was added, and the tracer solution was removed after 2, 5, 10 or 30 minutes, and the cells were washed 3 times with 1 mℓ uptake buffer at 4°C. To the cells, 0.75 mℓ of 1% Triton X-100 was added, and the cells were allowed to stand overnight so that they were lyzed and then the lysate was measured for radioactivity in a liquid scintillation counter.
The Km and Vmax for incorporation of […] were analyzed using a non-linear minimum square program [Yamaoka, K. et al., J. Pharmacobio-Dyn, 4, 879-885 (1981)] using a plot formula (V = Vmax × [S]/(Km + [S]); Vmax is a maximum rate constant, Km is a Michaelis constant, and [S] is a substrate concentration) for the rate of incorporation of L-Glu. […]

GLUT1 = target: T1, GLUT1; assay: Incorporation of 3-O-methyl-D-glucose (3-OMG) into brain capillary endothelial cell lines TM-BBB (glucose transfer ability); format: cell-based; settings: incorporation of [^3H]3-OMG into TM-BBB cell lines, uptake buffer 37°C, 20 seconds
Protocol: (§1) Each of TM-BBB's was plated onto a 24-well cell culture plate at a density of 3×10^5 cells/well/mℓ medium and cultured in a CO2 incubator at 33°C for 24 hours to make the cells confluent. The incorporation of 3-OMG was measured in the following manner. […] Ten seconds later, the uptake buffer was removed, and the cells were washed with the uptake buffer at 4°C. Subsequently, the uptake buffer was removed after 20 seconds, 30 seconds, 1 minute, or 10 minutes, and the cells were treated in the same manner. […] Twenty seconds later, the uptake buffer was removed, and the cells were washed with the uptake buffer at 4°C. Then, the cells were lyzed overnight with 1 mℓ PBS containing 1% Triton X-100 and then measured for radioactivity in a liquid scintillation counter. […] Pharmacobio-Dyn, 4: 879-885 (1981)] using a plot formula (V = Vmax x [S]/(Km + [S]); […]

[2] = substrate: CO[C@@H]([C@H](O)[C@H](O)CO)[C@@H](O)C=O; assay: as above; format: cell-based, mouse; settings: other: incorporation of [^3H]3-OMG into TM-BBB cell lines, uptake buffer 37°C, 20 seconds, 0.5-50 mM unlabelled 3-OMG, pH 7.4
Protocol: as §1

Molecule | incorporation of [^3H]L-Glu, expressed in % relative to the control [1] [%] | inhibition of incorporation of [^3H]L-Glu (in words) [1] | further results
N[C@H](CC(=O)O)C(=O)O [D-Asp, D-aspartic acid] | 67±6 | significantly inhibited | –
N[C@@H](CCC(=O)O)C(=O)O [L-Glu, L-glutamic acid] | 8.3±1.5 | – | maximum incorporation rate constant (Vmax) ([1]; incorporation of [^3H]L-Glu into TR-AST cell lines, 37°C): 1.8 nmol/min/mg protein; Km ([1]; incorporation of [^3H]L-Glu into TR-AST cell lines, 37°C, read-out: Michaelis constant (Km)): 96 µM
N[C@@H](CC(=O)O)C(=O)O [L-Asp, L-aspartic acid] | 57±2 | significantly inhibited | –
CO[C@@H]([C@H](O)[C@H](O)CO)[C@@H](O)C=O [3-OMG, 3-O-methyl-D-glucose] | – | – | maximum incorporation rate constant (Vmax) (GLUT1): 44 nmol/min/mg protein
B1 | – | – | Km [2]: 6.6 mM
